Laboratory results published in ChEMBL document CHEMBL5365490, “Enhanced tumor specific drug release by hypoxia sensitive dual-prodrugs based on 2-nitroimidazole” (Bioorg Med Chem Lett, 2023).
Calls of active or inactive are those of the source. No cut-off for these calls is given here.

Columns and labels:
[1] = Half life in PBS buffer at pH 7.4 measured upto 72 hrs by LC/MS analysis; format: physicochemical
[2] = tested on: MIA PaCa-2; experiment: Antiproliferative activity against human MIA-PaCa-2 cells assessed as reduction in cell viability > 1 uM measured for 72 hrs under hypoxia condition by MTT assay; format: functional, cell-based
[3] = Stability of compound in human MIA Paca-2 cells homogenates assessed as remaining parent compound incubated for 24 hrs by LC/MS analysis; format: ADME, cell-based; conditions: mia paca-2, 24 h
[4] = Chemical stability of compound in PBS at pH 7.4 assessed as remaining parent compound incubated for 24 hrs by LC/MS analysis; format: physicochemical; conditions: buffer, pH 7.4, 24 h
[5] = Chemical stability of compound in PBS at pH 7.4 assessed as remaining parent compound incubated for 6 hrs by LC/MS analysis; format: physicochemical; conditions: buffer, pH 7.4, 6 h
[6] = Stability of compound in human MIA Paca-2 cells homogenates assessed as remaining parent compound incubated for 6 hrs by LC/MS analysis; format: ADME, cell-based; conditions: mia paca-2, 6 h
[7] = tested on: MIA PaCa-2; experiment: Antiproliferative activity against human MIA-PaCa-2 cell assessed as inhibition of cell growth > 0.1 uM measured for 72 hrs under normoxia condition by MTT assay; format: functional, cell-based
[8] = tested on: MIA PaCa-2; experiment: Antiproliferative activity against human MIA-PaCa-2 cells assessed as reduction in cell viability > 0.1 uM measured for 72 hrs under hypoxia condition by MTT assay; format: functional, cell-based
[9] = Stability of compound in human MIA Paca-2 cells homogenates assessed as drug degradation incubated for 6 hrs by LC/MS analysis; format: ADME, cell-based; conditions: MIA PaCa-2 cell homogenates, read-out: Drug degradation
[10] = Drug metabolism in human MIA PaCa-2 cells homogenates assessed as (S)-2-(2,3-dichloro-4H-thieno[3,2-b]pyrrole-5-carboxamido)-3-(2-nitro-1H-imidazol-1-yl)propanoic acid formation incubated for 24 hrs by LC/MS analysis; format: ADME, cell-based; conditions: mia paca-2, 24 h
[11] = Drug metabolism in human MIA PaCa-2 cells homogenates assessed as gemcitabine formation incubated for 24 hrs by LC/MS analysis; format: ADME, cell-based; conditions: mia paca-2, 24 h
[12] = Chemical stability of compound in PBS at pH 7.4 assessed as remaining parent compound after 1 hrs of incubation by LC/MS analysis; format: physicochemical; conditions: buffer, pH 7.4, 1 h

Nc1nccn1C[C@@H](NC(=O)c1cc2sc(Cl)c(Cl)c2[nH]1)C(=O)Nc1ccc(COC(=O)Nc2ccn([C@@H]3O[C@H](CO)[C@@H](O)C3(F)F)c(=O)n2)cc1
half-life [1]: 40 h

O=C(Nc1ccn([C@@H]2O[C@H](CO)[C@@H](O)C2(F)F)c(=O)n1)OCc1ccc(NC(=O)[C@@H](Cn2ccnc2[N+](=O)[O-])NC(=O)c2cc3sc(Cl)c(Cl)c3[nH]2)cc1
Activity [2]: Active | Stability [3]: Stable | Stability [4]: Stable | Stability [5]: Stable | Stability [6]: Stable

Nc1ccn([C@@H]2O[C@H](CO)[C@@H](O)C2(F)F)c(=O)n1
Activity [7]: Active | Activity [8]: Active

Nc1ccn([C@@H]2O[C@H](COC(=O)[C@H](Cn3ccnc3[N+](=O)[O-])NC(=O)c3cc4sc(Cl)c(Cl)c4[nH]3)[C@@H](O)C2(F)F)c(=O)n1
metabolised at 6 h [9]: > 50% | Drug metabolism [10]: Metabolite_Detected | Drug metabolism [11]: Metabolite_Detected | Stability [12]: Unstable
